Test results as given in ChEMBL document CHEMBL1909046, “DrugMatrix in vitro pharmacology data”.

Assays:
[1] = biological target: cGMP-specific 3',5'-cyclic phosphodiesterase (Homo sapiens, UniProt O76074); assay: DRUGMATRIX: Phosphodiesterase PDE5 enzyme inhibition (substrate: [3H]cGMP + cGMP); assay type: tissue-based, Platelet; conditions: platelet; Not Active = under 50% inhibition at 10 µM
[2] = biological target: Tyrosine-protein kinase Fyn (Homo sapiens, UniProt P06241); assay: biochemical; assay type: cell-based, Insect cells; conditions: insect cells;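 note: enzymatic inhibition of Fyn kinase activity measured with Poly(Glu:Tyr) as the phosphorylation substrate; in other assays of this panel Not Active means under 50% inhibition at 10 µM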
Tyrosine-protein kinase Fyn, sequence (P06241 whole entry): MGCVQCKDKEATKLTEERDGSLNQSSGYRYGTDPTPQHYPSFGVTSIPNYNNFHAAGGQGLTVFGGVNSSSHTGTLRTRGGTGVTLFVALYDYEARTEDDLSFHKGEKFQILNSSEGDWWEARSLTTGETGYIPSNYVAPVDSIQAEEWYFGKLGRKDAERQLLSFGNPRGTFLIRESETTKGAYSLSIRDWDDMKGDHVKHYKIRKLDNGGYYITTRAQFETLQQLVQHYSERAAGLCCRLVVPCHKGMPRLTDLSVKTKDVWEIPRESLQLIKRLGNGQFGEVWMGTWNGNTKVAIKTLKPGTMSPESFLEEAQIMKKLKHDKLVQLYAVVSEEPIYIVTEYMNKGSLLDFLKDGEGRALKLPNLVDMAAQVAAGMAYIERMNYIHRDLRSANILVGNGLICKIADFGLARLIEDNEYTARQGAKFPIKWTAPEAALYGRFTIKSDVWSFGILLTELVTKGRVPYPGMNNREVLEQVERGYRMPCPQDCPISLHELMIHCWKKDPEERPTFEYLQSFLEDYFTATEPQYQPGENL

[3] = biological target: T1, Cysteinyl leukotriene receptor 1 (Homo sapiens, UniProt Q9Y271); assay type: cell membranes, Membrane; conditions: cho-k1; note: in other assays of this panel Not Active means under 50% inhibition at 10 µM
T1 sequence (Q9Y271 whole entry): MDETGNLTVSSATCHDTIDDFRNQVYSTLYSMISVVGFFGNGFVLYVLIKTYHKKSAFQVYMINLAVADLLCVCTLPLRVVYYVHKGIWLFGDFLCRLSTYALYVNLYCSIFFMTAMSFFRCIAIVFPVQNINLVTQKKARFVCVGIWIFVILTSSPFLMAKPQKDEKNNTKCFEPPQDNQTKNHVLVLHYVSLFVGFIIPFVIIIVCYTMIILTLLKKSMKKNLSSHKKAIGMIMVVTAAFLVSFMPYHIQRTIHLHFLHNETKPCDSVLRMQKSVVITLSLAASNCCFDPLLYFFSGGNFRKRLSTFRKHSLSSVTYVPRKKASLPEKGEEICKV

[4] = biological target: Mitogen-activated protein kinase 1 (Homo sapiens, UniProt P28482); assay: DRUGMATRIX: Protein Serine/Threonine Kinase, ERK2 enzyme inhibition (substrate: Myelin Basic Protein); design: species or system Escherichia coli; conditions: Not Active = under 50% inhibition at 10 µM
Mitogen-activated protein kinase 1, sequence (P28482 whole entry): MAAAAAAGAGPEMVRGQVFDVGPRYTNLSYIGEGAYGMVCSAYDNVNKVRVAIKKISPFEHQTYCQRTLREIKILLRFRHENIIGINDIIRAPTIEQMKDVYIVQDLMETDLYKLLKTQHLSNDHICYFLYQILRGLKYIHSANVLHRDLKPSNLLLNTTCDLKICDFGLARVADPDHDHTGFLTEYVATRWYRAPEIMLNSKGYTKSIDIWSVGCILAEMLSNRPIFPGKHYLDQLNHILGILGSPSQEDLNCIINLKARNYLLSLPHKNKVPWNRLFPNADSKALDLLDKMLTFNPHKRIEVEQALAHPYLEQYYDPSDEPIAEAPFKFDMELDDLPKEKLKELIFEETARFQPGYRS

Cytochrome P450 2C9 = Cytochrome P450 2C9 (Homo sapiens, UniProt P11712); conditions: bti-tn-5b1-4; note: in other assays of this panel Not Active means under 50% inhibition at 10 µM
Cytochrome P450 2C9, sequence (P11712 whole entry): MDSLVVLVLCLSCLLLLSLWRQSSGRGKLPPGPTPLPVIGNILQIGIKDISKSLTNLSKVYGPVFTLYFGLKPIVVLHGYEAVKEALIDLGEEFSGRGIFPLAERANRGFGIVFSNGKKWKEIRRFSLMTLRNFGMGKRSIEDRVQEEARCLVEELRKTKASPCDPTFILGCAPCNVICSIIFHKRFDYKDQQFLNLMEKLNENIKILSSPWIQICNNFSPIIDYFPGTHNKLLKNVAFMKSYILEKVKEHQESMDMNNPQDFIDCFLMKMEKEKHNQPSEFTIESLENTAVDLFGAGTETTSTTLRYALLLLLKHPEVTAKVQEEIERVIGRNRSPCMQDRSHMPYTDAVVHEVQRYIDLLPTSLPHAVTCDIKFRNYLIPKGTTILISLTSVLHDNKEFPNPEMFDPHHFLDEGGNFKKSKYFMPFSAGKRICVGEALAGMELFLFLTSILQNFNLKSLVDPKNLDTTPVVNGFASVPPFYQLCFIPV

[5] = DRUGMATRIX: Glutamate, Kainate radioligand binding (ligand: [3H] Kainic acid); assay type: cell membranes, Rattus norvegicus, Wistar, Brain, Membrane; conditions: Not Active = under 50% inhibition at 10 µM
[6] = DRUGMATRIX: GABAA, Muscimol, Central radioligand binding (ligand: [3H] Muscimol); assay type: cell membranes, Rattus norvegicus, Wistar, Brain, Membrane; conditions: Not Active = under 50% inhibition at 10 µM
[7] = DRUGMATRIX: Glutamate, NMDA, Phencyclidine radioligand binding (ligand: [3H] TCP); assay type: cell membranes, Rattus norvegicus, Wistar, Cerebral cortex, Membrane; conditions: Not Active = under 50% inhibition at 10 µM

Cc1ccc(C)c(OCCCC(C)(C)C(=O)O)c1 [GEMFIBROZIL]
Not Active: IC50 [1] | IC50 [2] | IC50 [3] | IC50 [4] | IC50 (Cytochrome P450 2C9) | Ki (Cytochrome P450 2C9) | IC50 [5] | Ki [5] | IC50 [6] | Ki [6] | IC50 [7] | Ki [7]

O=C(O)CCNC(=O)c1ccc(/N=N/c2ccc(O)c(C(=O)O)c2)cc1 [BALSALAZIDE]
Not Active: IC50 [1] | IC50 [2] | IC50 [3] | IC50 [4] | IC50 (Cytochrome P450 2C9) | Ki (Cytochrome P450 2C9) | IC50 [5] | Ki [5] | IC50 [6] | Ki [6] | IC50 [7] | Ki [7]

C[S+](C)[O-] [DIMETHYL SULFOXIDE]
Not Active: IC50 [1] | IC50 [2] | IC50 [3] | IC50 [4] | IC50 (Cytochrome P450 2C9) | Ki (Cytochrome P450 2C9) | IC50 [5] | Ki [5] | IC50 [6] | Ki [6] | IC50 [7] | Ki [7]

COc1cc(OC)c(C(=O)CCCN2CCCC2)c(OC)c1 [BUFLOMEDIL]
Not Active: IC50 [1] | IC50 [2] | IC50 [3] | IC50 [4] | IC50 (Cytochrome P450 2C9) | Ki (Cytochrome P450 2C9) | IC50 [5] | Ki [5] | IC50 [6] | Ki [6] | IC50 [7] | Ki [7]

COC(=O)Nc1nc2cc(C(=O)c3ccc(F)cc3)ccc2[nH]1 [FLUBENDAZOLE]
Not Active: IC50 [1] | IC50 [2] | IC50 [3] | IC50 [4] | IC50 (Cytochrome P450 2C9) | Ki (Cytochrome P450 2C9) | IC50 [5] | Ki [5] | IC50 [6] | Ki [6] | IC50 [7] | Ki [7]

COc1ccnc(C[S+]([O-])c2nc3ccc(OC(F)F)cc3[nH]2)c1OC (configuration not stated) [PANTOPRAZOLE]
Not Active: IC50 [1] | IC50 [2] | IC50 [3] | IC50 [4] | IC50 (Cytochrome P450 2C9) | Ki (Cytochrome P450 2C9) | IC50 [5] | Ki [5] | IC50 [6] | Ki [6] | IC50 [7] | Ki [7]

CCc1ccc(CCOc2ccc(CC3SC(=O)NC3=O)cc2)nc1 (configuration not stated) [PIOGLITAZONE]
Not Active: IC50 [1] | IC50 [2] | IC50 [3] | IC50 [4] | IC50 (Cytochrome P450 2C9) | Ki (Cytochrome P450 2C9) | IC50 [5] | Ki [5] | IC50 [6] | Ki [6] | IC50 [7] | Ki [7]

CC[C@H]1[C@@H]2C[C@H]3[C@@H]4N(C)c5ccccc5[C@]45C[C@@H]([C@@H]2[C@H]5O)N3[C@@H]1O [AJMALINE]
Not Active: IC50 [1] | IC50 [2] | IC50 [3] | IC50 [4] | IC50 (Cytochrome P450 2C9) | Ki (Cytochrome P450 2C9) | IC50 [5] | Ki [5] | IC50 [6] | Ki [6] | IC50 [7] | Ki [7]

CNC1=Nc2ccc(Cl)cc2C(c2ccccc2)=[N+]([O-])C1 [CHLORDIAZEPOXIDE]
Not Active: IC50 [1] | IC50 [2] | IC50 [3] | IC50 [4] | IC50 (Cytochrome P450 2C9) | Ki (Cytochrome P450 2C9) | IC50 [5] | Ki [5] | IC50 [6] | Ki [6] | IC50 [7] | Ki [7]

C[C@@H]1O[C@@H](O[C@H]2C[C@@H](O)[C@]3(CO)[C@H]4[C@H](O)C[C@]5(C)[C@@H](C6=CC(=O)OC6)CC[C@]5(O)[C@@H]4CC[C@]3(O)C2)[C@H](O)[C@H](O)[C@H]1O [OUABAIN]
Not Active: IC50 [1] | IC50 [2] | IC50 [3] | IC50 [4] | IC50 (Cytochrome P450 2C9) | Ki (Cytochrome P450 2C9) | IC50 [5] | Ki [5] | IC50 [6] | Ki [6] | IC50 [7] | Ki [7]

Cc1cccc(C)c1NC(=O)C1CCCCN1C (configuration not stated) [MEPIVACAINE]
Not Active: IC50 [1] | IC50 [2] | IC50 [3] | IC50 [4] | IC50 (Cytochrome P450 2C9) | Ki (Cytochrome P450 2C9) | IC50 [5] | Ki [5] | IC50 [6] | Ki [6] | IC50 [7] | Ki [7]
